Reference: US7022696B2, “Piperazino-derivatives and their use as PDE4 inhibitor” (Altana Pharma AG, priority 2001, dated 2006)
Structures can show the parent of a compound that is named as a salt.

Row | Structure (SMILES) | melting point
1 | COc1ccc(C2=NN(Cc3ccc(C(=O)N4CCN(c5cnccn5)CC4)cc3)C(=O)[C@H]3CC=CC[C@@H]23)c2c1OC(C)(C)C2.Cl.Cl (relative stereo) | 124 to 126 °C
2 | CCOc1ccc(C2=NN(c3ccc(C(=O)N4CCN(CCCN(C)C)CC4)cc3)C(=O)[C@@H]3CC=CC[C@H]23)cc1OCC.Cl.Cl | 248 °C (dec.)
3 | CCOc1ccc(C2=NN(c3ccc(C(=O)N4CCN(C5CCN(C)CC5)CC4)cc3)C(=O)[C@@H]3CC=CC[C@H]23)cc1OCC.Cl.Cl [Compound 28, (4aS,8aR)-4-(3,4-Diethoxy-phenyl)-2-(4-{1-[4-(1-methyl-piperidin-4-yl)-piperazin-1-yl]-methanoyl}-phenyl)-4a,5,8,8a-tetrahydro-2H-phthalazin-1-one dihydrochloride] | 275 °C (dec.)
4 | COc1ccc(C2=NN(c3ccc(C(=O)N4CCN(CCCN(C)C)CC4)cc3)C(=O)[C@@H]3CC=CC[C@H]23)c2c1OC(C)(C)C2.Cl.Cl [Compound 11, (4aS,8aR)-2-(4-{1-[4-(3-Dimethylamino-propyl)-piperazin-1-yl]-methanoyl}-phenyl)-4-(7-methoxy-2,2-dimethyl-2,3-dihydro-benzofuran-4-yl)-4a,5,8,8a-tetrahydro-2H-phthalazin-1-one dihydrochloride] | 262 °C (dec.)
5 | COc1ccc(C2=NN(c3ccc(C(=O)N4CCN(CCN(C)C)CC4)cc3)C(=O)C3CC=CCC23)c2c1OC(C)(C)C2 (as salt: hydrochloride) [Compound 14, (4aS,8aR)-2-{4-[4-(2-Dimethylamino-ethyl)-piperazine-1-carbonyl]-phenyl}-4-(7-methoxy-2,2-dimethy-2,3-dihydro-benzofuran-4-yl)-4a,5,8,8a-tetrahydro-2H-phthalazin-1-one dihydrochloride] | 245 °C (dec.)
6 | CCOc1ccc(C2=NN(c3ccc(C(=O)N4CCN(CCN5CCCC5)CC4)cc3)C(=O)[C@@H]3CC=CC[C@H]23)cc1OCC.Cl.Cl [Compound 24, (4aS,8aR)-4-(3,4-Diethoxy-phenyl)-2-(4-{1-[4-(2-pyrrolidin-1-yl-ethyl)-piperazin-1-yl]-methanoyl}-phenyl)-4a,5,8,8a-tetrahydro-2H-phthalazin-1-one dihydrochloride] | 185 to 186 °C
7 | COc1ccc(C2=NN(c3ccc(C(=O)N4CCN(CC(=O)N5CCOCC5)CC4)cc3)C(=O)[C@@H]3CC=CC[C@H]23)cc1OC.Cl | 168 to 169 °C
8 | COc1ccc(C2=NN(c3ccc(C(=O)N4CCN(c5c(Cl)cncc5Cl)CC4)cc3)C(=O)[C@@H]3CC=CC[C@H]23)cc1OC [Compound 15, (4aS,8aR)-2-(4-{1-[4-(3,5-Dichloropyridin-4-yl)-piperazin-1-yl]-methanoyl}-phenyl)-4-(3,4-dimethoxyphenyl)-4a,5,8,8a-tetrahydro-2H-phthalazin-1-one] | 137 to 139 °C
9 | COc1ccc(C2=NN(c3ccc(C(=O)N4CCN(CC(=O)N(C)C)CC4)cc3)C(=O)[C@@H]3CC=CC[C@H]23)cc1OC.Cl | 93 to 94 °C

Second part, the molecule after the results:

Row | melting point | Structure (SMILES)
10 | 203 to 206 °C (dec.) | CCOc1ccc(C2=NN(c3ccc(C(=O)N4CCN(c5cc(C)nc6ccccc56)CC4)cc3)C(=O)[C@@H]3CC=CC[C@H]23)cc1OCC.Cl [Compound 26, (4aS,8aR)-4-(3,4-Diethoxy-phenyl)-2-(4-{1-[4-(2-methyl-quinolin-4-yl)-piperazin-1-yl]-methanoyl}-phenyl)-4a,5,8,8a-tetrahydro-2H-phthalazin-1-one hydrochloride]
11 | 160 to 161 °C | COc1ccc(C2=NN(c3ccc(C(=O)N4CCN(CC(=O)N5CCCC5)CC4)cc3)C(=O)[C@@H]3CC=CC[C@H]23)cc1OC.Cl
12 | 138 to 140 °C | COc1ccc(C2=NN(c3ccc(C(=O)N4CCN(C(=O)c5ccco5)CC4)cc3)C(=O)C3CC=CCC23)c2c1OC(C)(C)C2 [Compound 9, (4aS,8aR)-2-(4-{1-[4-(1-furan-2-yl-methanoyl)-piperazin-1-yl]-methanoyl}-phenyl)-4-(7-methoxy-2,2-dimethyl-2,3-dihydrobenzofuran-4-yl)-4a,5,8,8a-tetrahydro-2-phthalazin-1-one]
13 | 146 to 147 °C | CCOc1ccc(C2=NN(c3ccc(C(=O)N4CCN(c5ccccc5)CC4)cc3)C(=O)[C@@H]3CC=CC[C@H]23)cc1OCC.Cl
14 | 146 to 147 °C | CCOC(=O)N1CCN(C(=O)c2ccc(N3N=C(c4ccc(OCC)c(OCC)c4)[C@H]4CC=CC[C@H]4C3=O)cc2)CC1 [Compound 7, 4-(1-{4-[(4aS,8aR)-4-(3,4-Diethoxyphenyl)-1-oxo-4a,5,8,8a-tetrahydro-1H-phthalazin-2-yl]-phenyl}-methanoyl)-piperazine-1-carboxylic acid ethyl ester]
15 | 114 to 115 °C | CCOc1ccc(C2=NN(c3ccc(C(=O)N4CCN(C(=O)c5ccco5)CC4)cc3)C(=O)[C@@H]3CC=CC[C@H]23)cc1OCC [Compound 4, (4aS,8aR)-4-(3,4-Diethoxyphenyl)-2-(4-{1-[4-(1-furan-2-yl-methanoyl)-piperazin-1-yl]-methanoyl}-phenyl)-4a,5,8,8a-tetrahydro-2H-phthalazin-1-one]
16 | 142 to 145 °C | CCOc1ccc(C2=NN(c3ccc(C(=O)N4CCN(c5cccc6[nH]ccc56)CC4)cc3)C(=O)[C@@H]3CC=CC[C@H]23)cc1OCC.Cl [Compound 21, (4aS,8aR)-4-(3,4-Diethoxy-phenyl)-2-(4-{1-[4-(1H-indol-4-yl)-piperazin-1-yl]-methanoyl}-phenyl)-4a,5,8,8a-tetrahydro-2H-phthalazin-1-one hydrochloride]
17 | 170 to 171 °C | CCOc1ccc(C2=NN(c3ccc(C(=O)N4CCN(CCCN5CCOCC5)CC4)cc3)C(=O)[C@@H]3CC=CC[C@H]23)cc1OCC.Cl.Cl [Compound 22, (4aS,8aR)-4-(3,4-Diethoxy-phenyl)-2-(4-{1-[4-(3-morpholin-4-yl-propyl)-piperazin-1-yl]-methanoyl}-phenyl)-4a,5,8,8a-tetrahydro-2H-phthalazin-1-one dihydrochloride]
18 | 271 °C (dec.) | COc1ccc(C2=NN(c3ccc(C(=O)N4CCN(CCN5CCOCC5)CC4)cc3)C(=O)[C@@H]3CC=CC[C@H]23)c2c1OC(C)(C)C2.Cl.Cl [Compound 20, (4aS,8aR)-4-(7-Methoxy-2,2-dimethyl-2,3-dihydro-benzofuran-4-yl)-2-(4-{1-[4-(2-morpholin-4-yl-ethyl)-piperazin-1-yl]-methanoyl}-phenyl)-4a,5,8,8a-tetrahydro-2H-phthalazin-1-one dihydrochloride]
19 | 148 to 151 °C | CCOc1ccc(C2=NN(c3ccc(C(=O)N4CCN(c5cnn(-c6ccccc6)c(=O)c5Cl)CC4)cc3)C(=O)[C@@H]3CC=CC[C@H]23)cc1OCC [Compound 12, (4aS,8aR)-2-{4-[4-(5-Chloro-6-oxo-1-phenyl-1,6-dihydro-pyridazin-4-yl)-piperazine-1-carbonyl]-phenyl}-4-(3,4-diethoxy-phenyl)-4a,5,8,8a-tetrahydro-2H-phthalazin-1-one]
20 | 117 to 118 °C | CCOc1ccc(C2=NN(c3ccc(C(=O)N4CCN(c5ccc([N+](=O)[O-])cn5)CC4)cc3)C(=O)C3CC=CCC23)cc1OCC (as salt: hydrochloride) [Compound 18, (4aS,8aR)-4-(3,4-Diethoxyohenyl)-2-(4-{1-[4-(5-nitro-pyridin-2-yl)-piperazin-1-yl]-methanoyl}-phenyl)-4a,5,8,8a-tetrahydro-2H-phthalazin-1-one hydrochloride]
